Tested on: RA patients
Test: LDL determination, Study 1 (RA patients, add-on to MTX)
Format: in vivo, human
Experimental: Double-blind, placebo-controlled add on study in subjects with moderately to severely active RA who have an inadequate response to methotrexate (MTX) (oral or parenteral).
595 subjects randomized to one of 6 dose regimens of Compound 1 (dosed as a [Compound 1:HCl:3H2O]) (3 dose levels administered either once or twice daily) or placebo on top of each subject's stable dose of MTX.
Compound 1 (dosed as a [Compound 1:HCl:3H2O]) is dosed for twelve weeks once daily (q.d.) (50 mg, 100 mg or 200 mg) or twice daily (b.i.d.) (25 mg, 50 mg or 100 mg); or placebo.
At Week 12, the subjects on placebo who have not achieved 20% improvement in swollen joint count (SJC66) and tender joint count (TJC68) are re-randomized automatically to receive Compound 1 (dosed as a [Compound 1:HCl:3H2O]) either at 100 mg q.d. or 50 mg b.i.d. doses in a blinded fashion; subjects on 50 mg q.d. who have not achieved 20% improvement in SJC66 and TJC68 will be assigned to 100 mg q.d. and subjects on 25 mg b.i.d. that have not achieved a 20% improvement in SJC66 and TJC68 will be assigned to 50 mg b.i.d. Subjects who switch treatment at week 12 are handled as if they discontinued at week 12 for the purpose of statistical analysis, whereas subjects in the other groups will maintain their randomized treatment until Week 24.
The determination of [LDL]-cholesterol is made using an automated method taking advantage of the selective micellary solubilization of [LDL]-cholesterol by a nonionic detergent and the interaction of a sugar compound and lipoproteins (VLDL and chylomicrons).
When a detergent is included in the enzymatic method for cholesterol determination (cholesterol esterase, cholesterol oxidase coupling reaction), the relative reactivities of cholesterol in the lipoprotein fractions increase in this order: [HDL]<chylomicrons <VLDL <[LDL]. In the presence of Mg^2+, a sugar compound markedly reduces the enzymatic reaction of the cholesterol measurement in VLDL and chylomicrons. The combination of a sugar compound with detergent enables the selective determination of [LDL]-cholesterol in serum. (Friedewald et al., 1972; Rifai et al., 1992)
Homogeneous enzymatic colorimetric assay.
In the presence of peroxidase, the hydrogen peroxide generated reacts with 4-aminoantipyrine and Sodium N-(2-hydroxy-3-sulfopropyl)-3,5-dimethoxyaniline (HSDA) to form a purple-blue dye.
The color intensity of this dye is directly proportional to the cholesterol concentration and is measured photometrically.
Human serum and plasma samples [LDL] determination was done on a Roche/Hitachi Cobas c 701/702 system which automatically calculate the analyte concentration of each sample. Samples containing precipitates are centrifuged before performing the assay.

[1] = Study 1 12 weeks results, 200 mg q.d., week 2
[2] = Study 1 12 weeks results, 200 mg q.d., week 4
[3] = Study 1 12 weeks results, 200 mg q.d., week 8
[4] = Study 1 12 weeks results, 200 mg q.d., week 12
[5] = Study 1 12 weeks results, 2 x 25 mg b.i.d., week 1
[6] = Study 1 12 weeks results, 2 x 25 mg b.i.d., week 2
[7] = Study 1 12 weeks results, 2 x 25 mg b.i.d., week 4
[8] = Study 1 12 weeks results, 2 x 25 mg b.i.d., week 8
[9] = Study 1 12 weeks results, 2 x 25 mg b.i.d., week 12
[10] = Study 1 12 weeks results, 2 x 50 mg b.i.d., week 1
[11] = Study 1 12 weeks results, 2 x 50 mg b.i.d., week 2
[12] = Study 1 12 weeks results, 2 x 50 mg b.i.d., week 4
[13] = Study 1 12 weeks results, 2 x 50 mg b.i.d., week 8
[14] = Study 1 12 weeks results, 2 x 50 mg b.i.d., week 12
[15] = Study 1 12 weeks results, 2 x 100 mg b.i.d., week 1
[16] = Study 1 12 weeks results, 2 x 100 mg b.i.d., week 2
[17] = Study 1 12 weeks results, 2 x 100 mg b.i.d., week 4
[18] = Study 1 12 weeks results, 2 x 100 mg b.i.d., week 8
[19] = Study 1 12 weeks results, 2 x 100 mg b.i.d., week 12
[20] = Study 1 24 weeks results, continued 50 mg q.d., week 1
[21] = Study 1 24 weeks results, continued 50 mg q.d., week 2
[22] = Study 1 24 weeks results, continued 50 mg q.d., week 4
[23] = Study 1 24 weeks results, continued 50 mg q.d., week 8
[24] = Study 1 24 weeks results, continued 50 mg q.d., week 12
[25] = Study 1 24 weeks results, continued 50 mg q.d., week 16
[26] = Study 1 24 weeks results, continued 50 mg q.d., week 20
[27] = Study 1 24 weeks results, continued 50 mg q.d., week 24
[28] = Study 1 24 weeks results, continued 100 mg q.d., week 1
[29] = Study 1 24 weeks results, continued 100 mg q.d., week 2
[30] = Study 1 24 weeks results, continued 100 mg q.d., week 4
[31] = Study 1 24 weeks results, continued 100 mg q.d., week 8
[32] = Study 1 24 weeks results, continued 100 mg q.d., week 12
[33] = Study 1 24 weeks results, continued 100 mg q.d., week 16
[34] = Study 1 24 weeks results, continued 100 mg q.d., week 20
[35] = Study 1 24 weeks results, continued 100 mg q.d., week 24
[36] = Study 1 24 weeks results, continued 200 mg q.d., week 24
[37] = Study 1 24 weeks results, placebo switched to 50 mg b.i.d at week 12, week 16
[38] = Study 1 24 weeks results, placebo switched to 50 mg b.i.d at week 12, week 20
[39] = Study 1 24 weeks results, placebo switched to 50 mg b.i.d at week 12, week 24

## O=C(Nc1nc2cccc(-c3ccc(CN4CCS(=O)(=O)CC4)cc3)n2n1)C1CC1 [Compound 1, cyclopropanecarboxylic acid {5-[4-(1,1-dioxo-thiomorpholin-4-ylmethyl)-phenyl]-[1,2,4]triazolo[1,5-a]pyridin-2yl}-amide]
[1]
  [LDL] Mean CFB: 0.11 mmol/L
  [LDL] Median CFB: 0.13 mmol/L
[2]
  [LDL] Mean CFB: 0.13 mmol/L
  [LDL] Median CFB: 0.09 mmol/L
[3]
  [LDL] Mean CFB: 0.16 mmol/L
  [LDL] Median CFB: 0.18 mmol/L
[4]
  [LDL] Mean CFB: 0.19 mmol/L
  [LDL] Median CFB: 0.14 mmol/L
[5]
  [LDL] Mean CFB: 0.04 mmol/L
  [LDL] Median CFB: 0.05 mmol/L
[6]
  [LDL] Mean CFB: 0.04 mmol/L
  [LDL] Median CFB: 0.09 mmol/L
[7]
  [LDL] Mean CFB: -0.01 mmol/L
  [LDL] Median CFB: -0.01 mmol/L
[8]
  [LDL] Mean CFB: -0.05 mmol/L
  [LDL] Median CFB: 0.01 mmol/L
[9]
  [LDL] Mean CFB: 0.07 mmol/L
  [LDL] Median CFB: 0.05 mmol/L
[10]
  [LDL] Mean CFB: 0.10 mmol/L
  [LDL] Median CFB: 0.17 mmol/L
[11]
  [LDL] Mean CFB: 0.04 mmol/L
  [LDL] Median CFB: 0.1 mmol/L
[12]
  [LDL] Mean CFB: 0.14 mmol/L
  [LDL] Median CFB: 0.05 mmol/L
[13]
  [LDL] Mean CFB: 0.07 mmol/L
  [LDL] Median CFB: 0.10 mmol/L
[14]
  [LDL] Mean CFB: 0.05 mmol/L
  [LDL] Median CFB: 0.02 mmol/L
[15]
  [LDL] Mean CFB: 0.20 mmol/L
  [LDL] Median CFB: 0.18 mmol/L
[16]
  [LDL] Mean CFB: 0.15 mmol/L
  [LDL] Median CFB: 0.08 mmol/L
[17]
  [LDL] Mean CFB: 0.17 mmol/L
  [LDL] Median CFB: 0.12 mmol/L
[18]
  [LDL] Mean CFB: 0.31 mmol/L
  [LDL] Median CFB: 0.22 mmol/L
[19]
  [LDL] Mean CFB: 0.27 mmol/L
  [LDL] Median CFB: 0.26 mmol/L
[20]
  [LDL] Mean CFB: 0.00 mmol/L
  [LDL] Median CFB: -0.01 mmol/L
[21]
  [LDL] Mean CFB: -0.02 mmol/L
  [LDL] Median CFB: 0.02 mmol/L
[22]
  [LDL] Mean CFB: 0.02 mmol/L
  [LDL] Median CFB: -0.01 mmol/L
[23]
  [LDL] Mean CFB: 0.08 mmol/L
  [LDL] Median CFB: 0.13 mmol/L
[24]
  [LDL] Mean CFB: 0.16 mmol/L
  [LDL] Median CFB: 0.14 mmol/L
[25]
  [LDL] Mean CFB: 0.15 mmol/L
  [LDL] Median CFB: 0.12 mmol/L
[26]
  [LDL] Mean CFB: 0.14 mmol/L
  [LDL] Median CFB: 0.20 mmol/L
[27]
  [LDL] Mean CFB: 0.13 mmol/L
  [LDL] Median CFB: 0.14 mmol/L
[28]
  [LDL] Mean CFB: 0.11 mmol/L
  [LDL] Median CFB: 0.10 mmol/L
[29]
  [LDL] Mean CFB: 0.01 mmol/L
  [LDL] Median CFB: 0.02 mmol/L
[30]
  [LDL] Mean CFB: 0.13 mmol/L
  [LDL] Median CFB: 0.13 mmol/L
[31]
  [LDL] Mean CFB: 0.03 mmol/L
  [LDL] Median CFB: 0.04 mmol/L
[32]
  [LDL] Mean CFB: 0.12 mmol/L
  [LDL] Median CFB: 0.13 mmol/L
[33]
  [LDL] Mean CFB: -0.01 mmol/L
  [LDL] Median CFB: 0.03 mmol/L
[34]
  [LDL] Mean CFB: -0.01 mmol/L
  [LDL] Median CFB: 0.02 mmol/L
[35]
  [LDL] Mean CFB: 0.03 mmol/L
  [LDL] Median CFB: 0.03 mmol/L
[36]
  [LDL] Mean CFB: 0.13 mmol/L
  [LDL] Median CFB: 0.17 mmol/L
[37]
  [LDL] Mean CFB: 0.07 mmol/L
  [LDL] Median CFB: 0.16 mmol/L
[38]
  [LDL] Mean CFB: 0.13 mmol/L
  [LDL] Median CFB: 0.06 mmol/L
[39]
  [LDL] Mean CFB: -0.01 mmol/L
  [LDL] Median CFB: 0.22 mmol/L
Increased from 25 mg b.i.d. to 50 mg b.i.d at 12 weeks, week 1
  [LDL] Mean percentage CFB - 24 weeks results: 2.10%
Increased from 25 mg b.i.d. to 50 mg b.i.d at 12 weeks, week 2
  [LDL] Mean percentage CFB - 24 weeks results: 4.27%
Increased from 25 mg b.i.d. to 50 mg b.i.d at 12 weeks, week 4
  [LDL] Mean percentage CFB - 24 weeks results: −3.29%
Increased from 25 mg b.i.d. to 50 mg b.i.d at 12 weeks, week 8
  [LDL] Mean percentage CFB - 24 weeks results: −5.79%
Increased from 25 mg b.i.d. to 50 mg b.i.d at 12 weeks, week 12
  [LDL] Mean percentage CFB - 24 weeks results: −0.19%
Increased from 25 mg b.i.d. to 50 mg b.i.d at 12 weeks, week 16
  [LDL] Mean percentage CFB - 24 weeks results: 3.55%
Increased from 25 mg b.i.d. to 50 mg b.i.d at 12 weeks, week 20
  [LDL] Mean percentage CFB - 24 weeks results: −8.82%
Increased from 25 mg b.i.d. to 50 mg b.i.d at 12 weeks, week 24
  [LDL] Mean percentage CFB - 24 weeks results: 2.65%
Increased from 50 mg q.d. to 100 mg q.d. at 12 weeks, week 1
  [LDL] Mean percentage CFB - 24 weeks results: 0.31%
Increased from 50 mg q.d. to 100 mg q.d. at 12 weeks, week 2
  [LDL] Mean percentage CFB - 24 weeks results: 4.52%
Increased from 50 mg q.d. to 100 mg q.d. at 12 weeks, week 4
  [LDL] Mean percentage CFB - 24 weeks results: −1.68%
Increased from 50 mg q.d. to 100 mg q.d. at 12 weeks, week 8
  [LDL] Mean percentage CFB - 24 weeks results: 1.20%
Increased from 50 mg q.d. to 100 mg q.d. at 12 weeks, week 12
  [LDL] Mean percentage CFB - 24 weeks results: 2.96%
Increased from 50 mg q.d. to 100 mg q.d. at 12 weeks, week 16
  [LDL] Mean percentage CFB - 24 weeks results: 4.69%
Increased from 50 mg q.d. to 100 mg q.d. at 12 weeks, week 20
  [LDL] Mean percentage CFB - 24 weeks results: 3.51%
Increased from 50 mg q.d. to 100 mg q.d. at 12 weeks, week 24
  [LDL] Mean percentage CFB - 24 weeks results: 4.92%
Placebo switched to 50 mg b.i.d at week 12, week 16
  [LDL] Mean percentage CFB - 24 weeks results: 4.13%
Placebo switched to 50 mg b.i.d at week 12, week 20
  [LDL] Mean percentage CFB - 24 weeks results: 6.69%
Placebo switched to 50 mg b.i.d at week 12, week 24
  [LDL] Mean percentage CFB - 24 weeks results: 2.68%
Placebo switched to 100 mg q.d. at week 12, week 16
  [LDL] Mean percentage CFB - 24 weeks results: −2.85%
Placebo switched to 100 mg q.d. at week 12, week 20
  [LDL] Mean percentage CFB - 24 weeks results: −1.07%
Placebo switched to 100 mg q.d. at week 12, week 24
  [LDL] Mean percentage CFB - 24 weeks results: −8.19%

Source: US10376520B2, “Methods for the treatment of cardiovascular disorders” (Galapagos NV, priority 2015, dated 2019)
